Measured values reported in patent US20250109121A1, “POTENT AND SELECTIVE SMARCA2 DEGRADING CHIMERIC MOLECULES AS CANCER THERAPEUTICS” (BOARD OF REGENTS, THE UNIVERSITY OF TEXAS SYSTEM, priority 2021, published 2025).
Entries after “also recorded” stand apart in the source; their conditions may differ. Where two headings read alike, the source gives them in different places.

What was measured:
SMARCA2 = SMARCA2 (Homo sapiens, UniProt P51531); experiment: Immunohistochemistry of SMARCA2 in H1299 xenograft tumors; type: in vivo; design: from tissue; host or cells: H1299 xenograft tumour tissue from female NCR Nude mice; settings: NCR Nude mice, 200 mg/kg intraperitoneally once per day for four days
Sequence of SMARCA2 (P51531 whole entry): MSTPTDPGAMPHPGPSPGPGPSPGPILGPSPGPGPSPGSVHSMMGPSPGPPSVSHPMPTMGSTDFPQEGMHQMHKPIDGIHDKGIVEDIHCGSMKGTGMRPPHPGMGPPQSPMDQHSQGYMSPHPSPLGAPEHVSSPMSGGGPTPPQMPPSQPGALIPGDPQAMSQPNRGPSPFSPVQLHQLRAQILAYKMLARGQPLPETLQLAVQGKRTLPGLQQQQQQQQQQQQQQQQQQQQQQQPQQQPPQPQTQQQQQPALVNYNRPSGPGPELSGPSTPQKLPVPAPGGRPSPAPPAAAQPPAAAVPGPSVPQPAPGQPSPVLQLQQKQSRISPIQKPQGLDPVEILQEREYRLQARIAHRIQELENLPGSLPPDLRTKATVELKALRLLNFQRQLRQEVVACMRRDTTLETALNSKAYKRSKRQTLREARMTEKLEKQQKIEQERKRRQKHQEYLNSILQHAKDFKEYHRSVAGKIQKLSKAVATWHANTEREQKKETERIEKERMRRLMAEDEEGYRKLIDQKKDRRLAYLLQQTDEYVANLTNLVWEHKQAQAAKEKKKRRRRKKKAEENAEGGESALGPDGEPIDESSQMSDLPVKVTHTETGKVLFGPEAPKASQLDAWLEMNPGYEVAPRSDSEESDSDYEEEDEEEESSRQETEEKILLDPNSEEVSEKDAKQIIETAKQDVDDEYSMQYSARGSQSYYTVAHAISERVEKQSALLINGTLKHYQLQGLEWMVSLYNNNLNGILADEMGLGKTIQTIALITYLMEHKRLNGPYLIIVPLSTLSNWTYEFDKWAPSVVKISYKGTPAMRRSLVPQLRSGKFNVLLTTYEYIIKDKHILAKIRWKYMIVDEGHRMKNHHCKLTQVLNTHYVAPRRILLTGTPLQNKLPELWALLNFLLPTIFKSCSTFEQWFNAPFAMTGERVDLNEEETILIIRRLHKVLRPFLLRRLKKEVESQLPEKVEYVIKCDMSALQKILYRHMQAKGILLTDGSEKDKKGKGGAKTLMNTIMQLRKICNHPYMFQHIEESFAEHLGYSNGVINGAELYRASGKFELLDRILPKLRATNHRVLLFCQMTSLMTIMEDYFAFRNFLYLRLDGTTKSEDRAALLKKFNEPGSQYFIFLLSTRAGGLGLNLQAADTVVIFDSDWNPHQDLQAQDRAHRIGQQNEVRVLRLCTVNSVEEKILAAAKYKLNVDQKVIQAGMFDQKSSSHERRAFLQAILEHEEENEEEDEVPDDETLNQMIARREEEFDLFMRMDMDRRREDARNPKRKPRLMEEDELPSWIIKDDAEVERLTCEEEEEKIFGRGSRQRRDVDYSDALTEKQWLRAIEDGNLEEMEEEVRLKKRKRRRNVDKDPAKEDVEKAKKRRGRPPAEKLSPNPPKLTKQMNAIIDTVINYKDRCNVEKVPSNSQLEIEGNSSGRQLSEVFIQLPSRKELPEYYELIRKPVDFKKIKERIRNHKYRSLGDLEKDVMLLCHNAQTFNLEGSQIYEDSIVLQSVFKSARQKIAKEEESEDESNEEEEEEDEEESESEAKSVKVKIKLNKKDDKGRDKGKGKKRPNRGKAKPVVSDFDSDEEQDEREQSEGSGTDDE
Description: NCR Nude mice were injected with vehicle or SMARCA2 degrader Compound 101 (200 mg/kg) once per day for four consecutive days intraperitoneally. Tumor tissues were harvested 24 hours after the last dose and fixed in formalin for 24 hours, paraffin embedded, sectioned and stained according to standard procedures. Briefly, endogenous peroxidases were inactivated by 3% hydrogen peroxide. Non-specific signals were blocked using 3% BSA, 10% goat serum in 0.1% Triton X-100. After antigen retrieval in citrate buffer, slides were stained overnight at 4° C. using SMARCA2 antibodies (Cell Signaling, D9E8B1:2000). After overnight incubation, the slides were washed and incubated with secondary antibody (HRP-polymers, Biocare Medical) for 30 min at room temperature. The slides were washed three times and stained with DAB substrate (ThermoFisher Scientific). The slides were then counterstained with haematoxylin and mounted with mounting medium. The slides were imaged by Vectra microscope and the signal intensity and percentage of cells positive for SMARCA2 was quantified using Vectra 3.0.7 software.

H2023 = experiment: Cell proliferation (colony assay) IC50; type: cell-based; settings: NCI-H2023; H2023, mutant SMARCA4
H441 = experiment: Cell proliferation (colony assay) IC50; type: cell-based; settings: Homo sapiens, NCI-H441; H441, wild-type SMARCA4
HCC366 = experiment: Cell proliferation (colony assay) IC50; type: cell-based; settings: HCC366, mutant SMARCA4
HCC827 = experiment: Cell proliferation (colony assay) IC50; type: cell-based; settings: Homo sapiens; HCC827, wild-type SMARCA4
H1793 = experiment: Cell proliferation (colony assay) IC50; type: cell-based; settings: Homo sapiens, NCI-H1793; H1793, mutant SMARCA4
HCC2279 = experiment: Cell proliferation (colony assay) IC50; type: cell-based; settings: HCC2279, wild-type SMARCA4
A549 = experiment: Cell proliferation (colony assay) IC50; type: cell-based; settings: Homo sapiens; A549, mutant SMARCA4
wild-type SMARCA4 cells = experiment: Colony assay / cell proliferation, wild-type SMARCA4 cell lines as a group; type: cell-based
Description: (§1) Cell lines with wild-type SMARCA4 (HCC44, H2122, H1792 and H1975) and cell lines with mutant SMARCA4 (H1693, HCC515, H322, and H1299) were seeded in appropriate dilutions to form colonies in about 1-3 weeks. Cells were treated with ACBI1 or Compound 101 at concentrations of 0.001, 0.01, 0.1, 1, and 10 μm. Colonies were fixed with glutaraldehyde (6% v/v), stained with crystal violet (0.5% w/v) and the percent area of colonies was determined (FIGS. 3A and 3B). In cell lines with wild-type SMARCA4, inhibition of colony growth was more pronounced after treatment with ACBI1 than Compound 101 (FIG. 3A).

mutant SMARCA4 cells = experiment: Colony assay / cell proliferation, mutant SMARCA4 cell lines as a group; type: cell-based
Description: as §1

SMARCA4 = SMARCA4 (Homo sapiens, UniProt P51532); experiment: SMARCA4 degradation in cell lines, western blot; type: cell-based
Sequence of SMARCA4 (P51532 whole entry): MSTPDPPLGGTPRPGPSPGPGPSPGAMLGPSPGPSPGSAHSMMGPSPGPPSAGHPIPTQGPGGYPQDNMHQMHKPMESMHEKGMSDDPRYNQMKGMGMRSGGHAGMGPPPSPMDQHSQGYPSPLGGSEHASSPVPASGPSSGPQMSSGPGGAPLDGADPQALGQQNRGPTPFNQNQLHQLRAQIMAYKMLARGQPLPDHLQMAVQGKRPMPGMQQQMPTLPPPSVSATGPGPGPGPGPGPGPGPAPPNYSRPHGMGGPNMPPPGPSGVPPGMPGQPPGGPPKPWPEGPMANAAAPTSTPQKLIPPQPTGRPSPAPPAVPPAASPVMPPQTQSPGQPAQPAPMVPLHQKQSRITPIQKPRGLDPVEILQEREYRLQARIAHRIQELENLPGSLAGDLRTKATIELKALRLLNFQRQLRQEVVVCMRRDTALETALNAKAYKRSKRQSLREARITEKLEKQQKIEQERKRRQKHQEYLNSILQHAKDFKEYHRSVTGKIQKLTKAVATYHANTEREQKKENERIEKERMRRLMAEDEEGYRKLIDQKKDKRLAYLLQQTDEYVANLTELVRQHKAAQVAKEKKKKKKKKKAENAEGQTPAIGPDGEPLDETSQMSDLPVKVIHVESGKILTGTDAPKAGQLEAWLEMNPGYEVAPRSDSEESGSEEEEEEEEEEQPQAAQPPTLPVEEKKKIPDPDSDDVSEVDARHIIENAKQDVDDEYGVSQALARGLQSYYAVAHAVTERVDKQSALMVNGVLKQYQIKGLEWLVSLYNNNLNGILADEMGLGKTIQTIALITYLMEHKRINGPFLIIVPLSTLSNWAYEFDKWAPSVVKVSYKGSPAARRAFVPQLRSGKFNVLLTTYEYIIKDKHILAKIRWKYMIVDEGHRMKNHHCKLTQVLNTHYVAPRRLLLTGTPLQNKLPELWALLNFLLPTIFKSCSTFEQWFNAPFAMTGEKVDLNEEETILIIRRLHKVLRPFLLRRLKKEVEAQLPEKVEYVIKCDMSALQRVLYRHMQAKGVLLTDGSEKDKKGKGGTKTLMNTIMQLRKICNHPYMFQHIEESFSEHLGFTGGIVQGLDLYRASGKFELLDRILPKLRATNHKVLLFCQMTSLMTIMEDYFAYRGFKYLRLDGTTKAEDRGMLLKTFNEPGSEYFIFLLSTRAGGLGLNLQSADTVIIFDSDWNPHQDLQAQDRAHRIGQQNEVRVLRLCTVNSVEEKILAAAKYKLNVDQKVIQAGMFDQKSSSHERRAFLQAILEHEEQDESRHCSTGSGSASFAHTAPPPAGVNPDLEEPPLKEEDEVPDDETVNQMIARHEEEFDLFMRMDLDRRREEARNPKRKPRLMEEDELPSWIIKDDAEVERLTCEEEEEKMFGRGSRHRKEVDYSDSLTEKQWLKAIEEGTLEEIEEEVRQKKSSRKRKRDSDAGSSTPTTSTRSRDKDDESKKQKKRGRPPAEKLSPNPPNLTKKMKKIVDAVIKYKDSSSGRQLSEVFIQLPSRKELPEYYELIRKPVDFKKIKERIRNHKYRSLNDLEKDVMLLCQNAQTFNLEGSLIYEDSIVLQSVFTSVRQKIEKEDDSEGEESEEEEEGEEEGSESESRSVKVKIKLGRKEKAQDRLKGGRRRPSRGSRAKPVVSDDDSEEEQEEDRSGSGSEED

H2228 = experiment: Cell proliferation (colony assay) IC50; type: cell-based; settings: Homo sapiens, NCI-H2228; H2228, wild-type SMARCA4

Nc1nnc(-c2ccccc2O)cc1N1CCN(Cc2ccc(OCCOCCNc3cccc4c3C(=O)N(C3CCC(=O)NC3=O)C4=O)c(F)c2)CC1 (stereo not shown) [Compound 101]
SMARCA2 in tumor tissue by immunohistochemistry (in words) (SMARCA2): significant reduction in SMARCA2
reduction in the percentage of SMARCA2 positive cells (SMARCA2; tumor harvested 24 hours after last dose, versus vehicle): more than 50%
IC50 (H2023): 483 nM
IC50 (H441): > 10000 nM
IC50 (HCC366): 242 nM
IC50 (HCC827): > 10000 nM
IC50 (H1793): 900 nM
IC50 (HCC2279): > 10000 nM
IC50 (A549): > 10000 nM
inhibition at 0.1 µM (wild-type SMARCA4 cells; read-out: inhibition at 100 nM in wild-type SMARCA4 cells (see FIG. 3D)): < 10%
IC50 (wild-type SMARCA4 cells; wild-type SMARCA4 cells (Table 4), read-out: IC50, span over cell lines): 970 to 10000 nM
colony growth / proliferation of mutant SMARCA4 cells (in words) (mutant SMARCA4 cells; H1693, HCC515, H322, H1299, 0.001-10 μm): selectively inhibited SMARCA4 mutant cells; also recorded: selectively inhibited cell proliferation in mutant SMARCA4 cell lines
IC50 (mutant SMARCA4 cells; mutant SMARCA4 cells (Table 5), upper end printed as >10 M, read-out: IC50, lower end of span over cell lines): ≥ 93 nM
inhibition at 0.1 µM (mutant SMARCA4 cells; read-out: inhibition at 100 nM in SMARCA4 mutant cells (see FIG. 3D)): ≤ 50%
SMARCA4 Dmax (%) (SMARCA4; H441, wild-type SMARCA4 cell line): 37%
DC50 (SMARCA4; H441, wild-type SMARCA4 cell line, read-out: SMARCA4 DC50): > 10000 nM
DC50 (SMARCA4; H1792, wild-type SMARCA4 cell line, read-out: SMARCA4 DC50): > 10000 nM
Dmax (SMARCA4; H1975, H1792, H2122, H441 (Table 3), read-out: SMARCA4 Dmax, span over cell lines): 38 to 50%
SMARCA4 degradation (western blot, in words) (SMARCA4; H1975, H1792, H2122, H441, 0.001-10 μm, increasing concentrations): degraded SMARCA2 and SMARCA4
DC50 (SMARCA4; H1975, wild-type SMARCA4 cell line, read-out: SMARCA4 DC50): > 10000 nM
DC50 (SMARCA4; H2122, wild-type SMARCA4 cell line, read-out: SMARCA4 DC50): > 10000 nM
DC50 (SMARCA4; H2228, wild-type SMARCA4 cell line, read-out: SMARCA4 DC50): > 10000 nM
Dmax (SMARCA4; HCC44, HCC44, wild-type SMARCA4 cell line, read-out: SMARCA4 Dmax (%)): 39%
DC50 (SMARCA4; HCC44, wild-type SMARCA4 cell line, read-out: SMARCA4 DC50): > 10000 nM
Dmax (SMARCA4; HCC827, HCC827, wild-type SMARCA4 cell line, read-out: SMARCA4 Dmax (%)): 39%
DC50 (SMARCA4; HCC827, wild-type SMARCA4 cell line, read-out: SMARCA4 DC50): > 10000 nM
DC50 (SMARCA4; HCC2279, wild-type SMARCA4 cell line, read-out: SMARCA4 DC50): 560 nM
Dmax (SMARCA4; HCC2279, wild-type SMARCA4 cell line, read-out: SMARCA4 Dmax (%)): 79%
DC50 (SMARCA4; HOP62, wild-type SMARCA4 cell line, read-out: SMARCA4 DC50): 1410 nM
Dmax (SMARCA4; HOP-62, HOP62, wild-type SMARCA4 cell line, read-out: SMARCA4 Dmax (%)): 77%
Dmax (SMARCA4; NCI-H441, H441, wild-type SMARCA4 cell line, read-out: SMARCA4 Dmax (%)): 50%
Dmax (SMARCA4; NCI-H1792, H1792, wild-type SMARCA4 cell line, read-out: SMARCA4 Dmax (%)): 38%
Dmax (SMARCA4; NCI-H2122, H2122, wild-type SMARCA4 cell line, read-out: SMARCA4 Dmax (%)): 47%
Dmax (SMARCA4; NCI-H2228, H2228, wild-type SMARCA4 cell line, read-out: SMARCA4 Dmax (%)): 25%
Dmax (SMARCA4; wild-type SMARCA4 cells (Table 4), read-out: SMARCA4 Dmax, span over cell lines): 38 to 79%
DC50 (SMARCA4; wild-type SMARCA4 cells (Table 4), upper end printed as above 10 μM, read-out: DC50 for SMARCA4 degradation, lower end of span over cell lines): ≥ 560 nM
IC50 (H2228): 970 nM
